Columns and labels:
S. pneumoniae D39V [1] = experiment: fitness (endpoint OD595 vs no drug) (fraction); higher = more growth
Method in brief: (§1)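 Cultures at OD595 0.01 were dispensed into 384-well plates in TSB, LB Lennox or CY and incubated at 37 °C. Every 30 min for 14 h, OD595 was read and corrected by the first reading. Fitness is the optical density at entry into stationary phase relative to the robust mean of no-drug control wells, capped at 1.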

S. aureus Newman [2] = experiment: as above
Method in brief: as §1

B. subtilis 168 = experiment: Bliss interaction score (quartile over a dose matrix) (fitness difference); higher = more antagonism (negative = synergy)
Method in brief: (§2)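 Each plate was normalised to the robust mean of its own no-drug wells, using OD595 at entry into stationary phase, with values capped at 1. This normalised growth is the fitness value. The Bliss score is the difference between observed and product-expected fitness, with single-drug fitness inferred from the combination data and quartiles taken over technical, biological and donor/recipient replicates.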

S. pneumoniae D39V [3] = experiment: as above
Method in brief: as §2

S. aureus DSM 20231 = experiment: as above
Method in brief: as §2

S. aureus Newman [4] = experiment: as above
Method in brief: as §2
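For Bliss interaction score (quartile over a dose matrix) in this document: first quartile when negative (synergy) and third quartile when positive (antagonism).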

CCCCCCCCCC(=O)N[C@@H](Cc1c[nH]c2ccccc12)C(=O)N[C@H](CC(N)=O)C(=O)N[C@@H](CC(=O)O)C(=O)N[C@@H]1C(=O)NCC(=O)N[C@@H](CCCN)C(=O)N[C@@H](CC(=O)O)C(=O)N[C@H](C)C(=O)N[C@@H](CC(=O)O)C(=O)NCC(=O)N[C@H](CO)C(=O)N[C@@H]([C@H](C)CC(=O)O)C(=O)N[C@@H](CC(=O)c2ccccc2N)C(=O)O[C@@H]1C [Daptomycin] + C/C(=C\C(=O)OCCCCCCCCC(=O)O)C[C@@H]1OC[C@H](C[C@@H]2O[C@H]2[C@@H](C)[C@H](C)O)[C@@H](O)[C@H]1O [Pseudomonic acid]
fitness, S. pneumoniae D39V [1]
Conditions | first compound 1 µg/mL | first compound 2 µg/mL | first compound 4 µg/mL
partner 0.03 µg/mL | 0.895 | 0.904 | 0.893
partner 0.06 µg/mL | 0.679 | 0.765 | 0.736
partner 0.12 µg/mL | 0.324 | 0.407 | 0.408

fitness, S. aureus Newman [2], one replicate
Conditions | first compound 0.125 µg/mL | first compound 0.25 µg/mL | first compound 0.5 µg/mL
partner 0.0313 µg/mL | 0.0598 | 0.0545 | 0.0362
partner 0.0625 µg/mL | 0.0219 | 0.0175 | 0.0123
partner 0.125 µg/mL | 0.0444 | 0.0303 | 0.0061

Conditions | Bliss interaction score
B. subtilis 168 | 0.058
S. aureus DSM 20231 | -0.0135
S. aureus Newman [4] | -0.0312
S. pneumoniae D39V [3] | -0.101

CO/N=C(\C(=O)N[C@@H]1C(=O)N2C(C(=O)[O-])=C(C[N+]3(C)CCCC3)CS[C@H]12)c1csc(N)n1 [Cefepime] + CN(C)c1cc(NC(=O)CNC(C)(C)C)c(O)c2c1C[C@H]1C[C@H]3[C@H](N(C)C)C(O)=C(C(N)=O)C(=O)[C@@]3(O)C(O)=C1C2=O [Tigecycline]
Conditions | fitness
S. aureus Newman [2], first compound 0.125 µg/mL, partner 0.039 µg/mL | 0.905
S. aureus Newman [2], first compound 0.125 µg/mL, partner 0.078 µg/mL | 0.92
S. aureus Newman [2], first compound 0.125 µg/mL, partner 0.156 µg/mL | 0.882
S. aureus Newman [2], first compound 0.25 µg/mL, partner 0.039 µg/mL | 0.837
S. aureus Newman [2], first compound 0.25 µg/mL, partner 0.078 µg/mL | 0.838
S. aureus Newman [2], first compound 0.25 µg/mL, partner 0.156 µg/mL | 0.862
S. aureus Newman [2], first compound 0.5 µg/mL, partner 0.039 µg/mL | 0.72
S. aureus Newman [2], first compound 0.5 µg/mL, partner 0.078 µg/mL | 0.763
S. aureus Newman [2], first compound 0.5 µg/mL, partner 0.156 µg/mL | 0.798
S. pneumoniae D39V [1], first compound 0.007 µg/mL, partner 0.325 µg/mL | 0.996
S. pneumoniae D39V [1], first compound 0.007 µg/mL, partner 0.65 µg/mL | 0.964
S. pneumoniae D39V [1], first compound 0.007 µg/mL, partner 1.3 µg/mL | 0.955
S. pneumoniae D39V [1], first compound 0.0078 µg/mL, partner 0.65 µg/mL | 0.963
S. pneumoniae D39V [1], first compound 0.0078 µg/mL, partner 1.3 µg/mL | 0.943
S. pneumoniae D39V [1], first compound 0.0078 µg/mL, partner 2.6 µg/mL | 0.918
S. pneumoniae D39V [1], first compound 0.014 µg/mL, partner 0.325 µg/mL | ≥ 1
S. pneumoniae D39V [1], first compound 0.014 µg/mL, partner 0.65 µg/mL | 0.983
S. pneumoniae D39V [1], first compound 0.014 µg/mL, partner 1.3 µg/mL | 0.99
S. pneumoniae D39V [1], first compound 0.0155 µg/mL, partner 0.65 µg/mL | 0.91
S. pneumoniae D39V [1], first compound 0.0155 µg/mL, partner 1.3 µg/mL | 0.935
S. pneumoniae D39V [1], first compound 0.0155 µg/mL, partner 2.6 µg/mL | 0.883
S. pneumoniae D39V [1], first compound 0.028 µg/mL, partner 0.325 µg/mL | 0.951
S. pneumoniae D39V [1], first compound 0.028 µg/mL, partner 0.65 µg/mL | 0.877
S. pneumoniae D39V [1], first compound 0.028 µg/mL, partner 1.3 µg/mL | 0.865
S. pneumoniae D39V [1], first compound 0.031 µg/mL, partner 0.65 µg/mL | 0.543
S. pneumoniae D39V [1], first compound 0.031 µg/mL, partner 1.3 µg/mL | 0.698
S. pneumoniae D39V [1], first compound 0.031 µg/mL, partner 2.6 µg/mL | 0.684

Conditions | Bliss interaction score
B. subtilis 168 | 0.115
S. aureus DSM 20231 | 0.0417
S. aureus Newman [4] | -0.0743
S. pneumoniae D39V [3] | 0.0368

CC1(C)S[C@@H]2[C@H](NC(=O)[C@H](N)c3ccc(O)cc3)C(=O)N2[C@H]1C(=O)O [Amoxicillin] + CC1=C(C(=O)O)N2C(=O)[C@@H](NC(=O)[C@H](N)c3ccccc3)[C@H]2SC1 [Cephalexin]
one replicate
Conditions | fitness
S. aureus Newman [2], first compound 0.0625 µg/mL, partner 2 µg/mL | 0.864
S. aureus Newman [2], first compound 0.125 µg/mL, partner 2 µg/mL | 0.832
S. aureus Newman [2], first compound 0.25 µg/mL, partner 2 µg/mL | 0.705
S. pneumoniae D39V [1], first compound 0.0008 µg/mL, partner 0.125 µg/mL | 0.978
S. pneumoniae D39V [1], first compound 0.0008 µg/mL, partner 0.25 µg/mL | 0.9
S. pneumoniae D39V [1], first compound 0.0008 µg/mL, partner 0.5 µg/mL | 0.881
S. pneumoniae D39V [1], first compound 0.0008 µg/mL, partner 1 µg/mL | 0.91
S. pneumoniae D39V [1], first compound 0.0008 µg/mL, partner 2 µg/mL | 0.494
S. pneumoniae D39V [1], first compound 0.0008 µg/mL, partner 4 µg/mL | 0.02
S. pneumoniae D39V [1], first compound 0.0015 µg/mL, partner 0.125 µg/mL | 0.922
S. pneumoniae D39V [1], first compound 0.0015 µg/mL, partner 0.25 µg/mL | 0.891
S. pneumoniae D39V [1], first compound 0.0015 µg/mL, partner 0.5 µg/mL | 0.906
S. pneumoniae D39V [1], first compound 0.003 µg/mL, partner 0.125 µg/mL | 0.857
S. pneumoniae D39V [1], first compound 0.003 µg/mL, partner 0.25 µg/mL | 0.835
S. pneumoniae D39V [1], first compound 0.003 µg/mL, partner 0.5 µg/mL | 0.849
S. pneumoniae D39V [1], first compound 0.006 µg/mL, partner 1 µg/mL | 0.0722
S. pneumoniae D39V [1], first compound 0.006 µg/mL, partner 2 µg/mL | 0.0153
S. pneumoniae D39V [1], first compound 0.006 µg/mL, partner 4 µg/mL | 0.0513

fitness
Conditions | partner 0.25 µg/mL | partner 0.5 µg/mL | partner 1 µg/mL | partner 2 µg/mL | partner 4 µg/mL
S. aureus Newman [2], first compound 0.0625 µg/mL | 0.877 | 0.882 | 0.942 | – | –
S. aureus Newman [2], first compound 0.125 µg/mL | 0.928 | 0.921 | 0.894 | – | –
S. aureus Newman [2], first compound 0.25 µg/mL | 0.877 | 0.928 | 0.888 | – | –
S. pneumoniae D39V [1], first compound 0.0015 µg/mL | – | – | 0.791 | 0.337 | 0.0775
S. pneumoniae D39V [1], first compound 0.003 µg/mL | – | – | 0.544 | 0.125 | 0.0383

Conditions | Bliss interaction score
B. subtilis 168 | 0.0616
S. aureus DSM 20231 | 0.0743
S. aureus Newman [4] | 0.0592
S. pneumoniae D39V [3] | -0.0619

CO/N=C(\C(=O)N[C@@H]1C(=O)N2C(C(=O)[O-])=C(C[N+]3(C)CCCC3)CS[C@H]12)c1csc(N)n1 [Cefepime] + CN[C@@H]1[C@H](O[C@H]2[C@H](O[C@H]3[C@H](O)[C@@H](O)[C@H](N=C(N)N)[C@@H](O)[C@@H]3N=C(N)N)O[C@@H](C)[C@]2(O)C=O)O[C@@H](CO)[C@H](O)[C@H]1O [Streptomycin]
fitness
Conditions | partner 1 µg/mL | partner 2 µg/mL | partner 4 µg/mL | partner 8 µg/mL
S. aureus Newman [2], first compound 0.125 µg/mL | 0.939 | 0.882 | – | –
S. aureus Newman [2], first compound 0.25 µg/mL | 0.865 | 0.848 | – | –
S. aureus Newman [2], first compound 0.5 µg/mL | 0.765 | 0.773 | – | –
S. pneumoniae D39V [1], first compound 0.007 µg/mL | – | 0.949 | 0.945 | 0.965
S. pneumoniae D39V [1], first compound 0.0078 µg/mL | – | – | ≥ 1 | 0.903
S. pneumoniae D39V [1], first compound 0.014 µg/mL | – | 0.971 | 0.954 | 0.984
S. pneumoniae D39V [1], first compound 0.0155 µg/mL | – | – | 0.984 | 0.889
S. pneumoniae D39V [1], first compound 0.028 µg/mL | – | 0.864 | 0.874 | 0.912
S. pneumoniae D39V [1], first compound 0.031 µg/mL | – | – | 0.475 | 0.538

fitness, S. pneumoniae D39V [1], one replicate
Conditions | first compound 0.0078 µg/mL | first compound 0.0155 µg/mL | first compound 0.031 µg/mL
partner 2 µg/mL | ≥ 1 | 0.977 | 0.468
partner 16 µg/mL | 0.883 | 0.863 | 0.481

Conditions | Bliss interaction score
B. subtilis 168 | -0.159
S. aureus DSM 20231 | 0.0906
S. aureus Newman [4] | 0.0474
S. pneumoniae D39V [3] | 0.0613
